Experimental findings from PMC9865085, “Expression and Characterisation of the First Snail-Derived UDP-Gal: Glycoprotein-N-acetylgalactosamine β-1,3-Galactosyltransferase (T-Synthase) from Biomphalaria glabrata” (Molecules, 2023) are described below.

The target in test [1] is T1, T-synthase (UDP-Gal: glycoprotein-N-acetylgalactosamine β-1,3-galactosyltransferase) from Biomphalaria glabrata (Biomphalaria glabrata, UniProt A0A2C9JXL4).
T1 construct: full-length 388 aa type II transmembrane protein, C-terminal His-tag, codon-optimised synthetic gene, expressed in Sf9 cells; lysate or captured on anti-His magnetic beads
T1 sequence (A0A2C9JXL4 1-388): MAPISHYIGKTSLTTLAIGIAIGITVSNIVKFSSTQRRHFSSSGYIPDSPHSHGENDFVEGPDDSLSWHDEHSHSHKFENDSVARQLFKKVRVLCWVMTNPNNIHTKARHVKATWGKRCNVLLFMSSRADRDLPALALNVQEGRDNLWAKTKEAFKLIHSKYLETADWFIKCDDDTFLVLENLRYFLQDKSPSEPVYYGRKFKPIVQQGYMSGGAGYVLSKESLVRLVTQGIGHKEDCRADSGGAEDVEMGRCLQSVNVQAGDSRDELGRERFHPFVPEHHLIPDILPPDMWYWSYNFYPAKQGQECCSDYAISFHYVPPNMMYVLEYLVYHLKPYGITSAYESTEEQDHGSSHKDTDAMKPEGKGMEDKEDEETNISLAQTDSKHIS
The test can be described thus: galactosyl transfer, HPLC; product linkage by NMR. In kind it is cell-based. The following applies: acceptor, 1 mM; 200 μM UDP-Gal, 20 mM MnCl2, 2 mM ATP, 50 mM MES pH 6.5, 37 °C, 2 h; Sf9 lysate, control lysate inactive.

Test [2] addresses T1, T-synthase (UDP-Gal: glycoprotein-N-acetylgalactosamine β-1,3-galactosyltransferase) from Biomphalaria glabrata. The test can be described thus: galactosyl transfer to pNP-α-GalNAc, HPLC. In kind it is biochemical. Conditions: 5 nmol added to 20 μL assay; 200 μM UDP-Gal, 1 mM pNP-α-GalNAc, 20 mM MnCl2, 2 mM ATP, 50 mM MES pH 6.5, 37 °C, 2 h; bead-bound enzyme or lysate not stated for this test.

Regarding `CC(=O)N[C@H]1[C@@H](Oc2ccc([N+](=O)[O-])cc2)O[C@H](CO)[C@H](O)[C@@H]1O` [pNP-α-GalNAc], in test [1], the “galactosyl transfer, HPLC; product linkage by NMR” value is listed as “the identity of the product pNP-α-GalNAc-β-1,3-Gal was clearly confirmed”. Take `O=c1ccn([C@@H]2O[C@H](COP(=O)(O)OP(=O)(O)OP(=O)(O)O)[C@@H](O)[C@H]2O)c(=O)[nH]1` [UTP]: the “% inhibition at 5 nmol” value in test [2] is on record as ~ 50%. With `O=c1ccn([C@@H]2O[C@H](COP(=O)(O)O)[C@@H](O)[C@H]2O)c(=O)[nH]1` [UMP], in test [2], the “% inhibition at 5 nmol” value is on record as ~ 50%.
